Drawing on patent US8921380B2, “Pyrazolo[1,5-a] pyrimidine compounds as CB1 receptor antagonist” (Mitsubishi Tanabe Pharma Corporation, priority 2006, dated 2014), this text covers IC50 and Selectivity for 19 compounds.

As a reminder, the IC50 is the concentration that inhibits the measured activity by half. High values mean weaker potency in that assay, low ones greater potency in that assay.

T1 sequence (P21554 whole entry): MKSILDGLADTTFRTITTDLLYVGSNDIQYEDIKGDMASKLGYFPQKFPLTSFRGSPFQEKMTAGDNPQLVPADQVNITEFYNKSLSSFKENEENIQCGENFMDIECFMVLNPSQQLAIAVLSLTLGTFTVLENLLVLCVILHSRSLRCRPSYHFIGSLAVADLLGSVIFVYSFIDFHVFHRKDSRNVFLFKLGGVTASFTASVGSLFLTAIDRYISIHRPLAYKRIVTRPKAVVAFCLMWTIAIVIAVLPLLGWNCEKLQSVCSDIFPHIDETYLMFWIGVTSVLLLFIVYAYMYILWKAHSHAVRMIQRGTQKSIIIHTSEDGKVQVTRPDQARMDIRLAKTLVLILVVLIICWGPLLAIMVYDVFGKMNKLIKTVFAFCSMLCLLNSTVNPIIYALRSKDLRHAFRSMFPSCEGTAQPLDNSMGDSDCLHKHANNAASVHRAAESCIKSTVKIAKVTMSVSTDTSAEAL

One experiment concerns the target T1, Human CB1 receptor (Homo sapiens, UniProt P21554).
T1 construct: host or cells: CHO (hCB1/CHO), membrane fraction
Put plainly: Human CB1 receptor binding assay ([3H]-CP55940, hCB1/CHO membrane fraction). To be noted: Experiment 1; inhibition of [3H]-CP55940 binding to hCB1/CHO membranes. The procedure: [Human CB1 Receptor Binding Assay]
(1) Preparation of Human CB1 Receptor (Membrane Fraction):
Human CB1-expressing cell line: hCB1/CHO (#ES-110-C, Euroscreen)
Buffer A: 50 mM tris-HCl (pH 7.5) containing ethylenediaminetetraacetic acid (2.5 mM), MgCl2 (5 mM) and sucrose (200 mM)
Method) The receptor-expressing cells cultivated in the above medium were washed with phosphate buffer (×2 times) and thereto was added Buffer A (2 mL) under ice-cooling or 4° C. (the following procedures were also carried out at the same temperature). The cells were collected by using a cell-scraper, treated by a microtip-type ultrasonicator for 20 seconds (pulse-on: 2 sec, pulse-off: 1 sec) and centrifuged (500×g, 15 min). The supernatant was separated and centrifuged (43000×g, 60 min). The resultant pellet was suspended in Buffer A and homogenized with a potter-type homogenizer. To the homogenate was added an equal volume of 80% glycerol and stored at −80° C.
(2) Procedure of CB1 Receptor Binding Assay:
Buffer B: 50 mM tris-HCl (pH 7.5) containing ethylenediaminetetraacetic acid (2.5 mM), MgCl2 (5 mM) and bovine serum albumine (2 mg/mL, fatty acid-free, SIGMA-A7030)
Buffer C: 50 mM tris-HCl (pH 7.5) containing ethylenediaminetetraacetic acid (2.5 mM), MgCl2 (5 mM) and bovine serum albumine (2 mg/mL, SIGMA-A7906)
Coating solution: 0.3% ethyleneimine polymer
Radioligand: [^3H]-CP55940 (30 nM, 7992 dpm/μL, PerkinElmer, #NET-1051) prepared by diluting 8.3 μM solution of the radioligand with Buffer B
Method) Each well of the assay plate (96-well, Corning Costar Code#3371) was filled with Buffer B (140 μL), a solution of each test compound in dimethylsulfoxide (20 μL, […]), radioligand (20 μL) and membrane preparation (20 μL, 0.5 to 8.0 μg/20 μL) and the mixture was incubated at room temperature for 90 minutes to proceed the binding reaction. The reaction mixture was filtered through Unifilter GF/B (Packard#6005177) presoaked with the above coating solution to collect the membrane fraction. The plate was washed with Buffer C (200 μL×10 times) and dried at 50° C. for 1 hour and Microscinti 40 (40 μL/well) was added to each well. The bound radiolabel was quantitated by a scintilation counter (Top Count NXT, Packard). IC50 value of each test compound against the radioligand-binding to CB1 receptors was calculated on the basis of the quantitated radiolabel activity by using Microsoft Excel 2000 (Microsoft).
(§1) a) Human CB1 receptor-binding assay: The binding assay was conducted in the same manner as described in Experiment 1.
The compound `CNC(=O)C1(NC(=O)c2cnn3c(-c4ccc(Cl)cc4)c(-c4ccccc4Cl)cnc23)CCCCC1` [Example A5, 6-(2-chlorophenyl)-7-(4-chlorophenyl)-3-[N-[1-(N-methylcarbamoyl)cyclohexyl]-carbamoyl]pyrazolo[1,5-a]pyrimidine] had an IC50 of 0.01 to 0.1 µM.
The same measure, in the same setting: the same measure for `CC1(NC(=O)c2cnn3c(-c4ccc(Cl)cc4)c(-c4ccccc4Cl)cnc23)CCCCC1` [Example A10]: 0.01 to 0.1 µM.
Same read-out and setting: the same measure for `Cc1nn2c(-c3ccc(C(F)(F)F)cc3)c(-c3ccccc3Cl)cnc2c1C(=O)NC1(C#N)CCCCC1` [Example A13]: 0.01 to 0.1 µM; for `CC(NC(=O)c1cnn2c(-c3ccc(Cl)cc3F)c(-c3ccccc3Cl)cnc12)c1ccccn1` (centres unmarked) [Example A15]: 0.01 to 0.1 µM; for `CNS(=O)(=O)c1nn2c(-c3ccc(Cl)cc3)c(-c3ccccc3Cl)cnc2c1C(=O)N[C@@H]1CCS(=O)(=O)C1` [Example B6]: 0.01 to 0.1 µM.
Compound `CN(NC(=O)c1c(S(=O)(=O)N(C)C)nn2c(-c3ccc(Cl)cc3)c(-c3ccccc3Cl)cnc12)c1ccccn1` [Example B12] had an IC50 of 0.01 to 0.1 µM.
`NS(=O)(=O)c1nn2c(-c3ccc(Cl)cc3)c(-c3ccccc3Cl)cnc2c1C(=O)NN1CCCC1` [Example B14] came in with an IC50 below 0.01 µM.
Turning to `CN(NC(=O)c1c(S(N)(=O)=O)nn2c(-c3ccc(Cl)cc3)c(-c3ccccc3Cl)cnc12)c1ccccn1` [Example B15], the IC50 is below 0.01 µM.
The same measure, in the same setting: the same measure for `N#Cc1ccccc1-c1cnc2c(C(=O)NC3CCCC3)c(S(N)(=O)=O)nn2c1-c1ccc(Cl)cc1` [Example B23]: below 0.01 µM; for `NC(=O)CNS(=O)(=O)c1nn2c(-c3ccc(Cl)cc3)c(-c3ccccc3Cl)cnc2c1C(=O)NC1CCCC1` [Example B26]: 0.01 to 0.1 µM.
As for `NC(=O)C1(NC(=O)c2c(S(N)(=O)=O)nn3c(-c4ccc(Cl)cc4)c(-c4ccccc4Cl)cnc23)CCCCC1` [Example B30, 3-[N-(1-carbamoylcyclohexyl)carbamoyl]-6-(2-chlorophenyl)-7-(4-chlorophenyl)-2-sulfamoylpyrazolo[1,5-a]pyrimidine], the IC50 lay in the range of 0.01 to 0.1 µM.

The same experiment, now with this note: Experiment 2; same method as Experiment 1.
`NC(=O)C1(NC(=O)c2cnn3c(-c4ccc(Cl)cc4)c(-c4ccccc4Cl)cnc23)CCS(=O)(=O)CC1` [Example A3, 3-[N-(4-carbamoyl-1,1-dioxo-tetrahydrothiopyran-4-yl)carbamoyl]-6-(2-chlorophenyl)-7-(4-chlorophenyl)pyrazolo[1,5-a]pyrimidine] yielded an IC50 of 0.01 to 0.1 µM.
With `CC1(NC(=O)c2c(OCCO)nn3c(-c4ccc(Cl)cc4)c(-c4ccccc4Cl)cnc23)CCS(=O)(=O)C1` (centres unmarked) [Example A140], the IC50 was below 0.01 µM.
`N#Cc1ccccc1-c1cnc2c(C(=O)NC3(C(N)=O)CCS(=O)(=O)CC3)cnn2c1-c1ccc(C(F)(F)F)cc1` [Example A146]: the IC50 fell in the range of 0.01 to 0.1 µM.
Compound `Cc1nn2c(-c3ccc(Cl)cc3)c(-c3ccccc3Cl)cnc2c1C(=O)NC1(C(N)=O)CCS(=O)(=O)CC1` [Example A175] came in with an IC50 of 0.01 to 0.1 µM.
Same read-out and setting: the value for `CC1(NC(=O)c2c(CO)nn3c(-c4ccc(C(F)(F)F)cc4)c(-c4ccccc4Cl)cnc23)CCS(=O)(=O)CC1` [Example B32, 6-(2-chlorophenyl)-7-(4-trifluoromethylphenyl)-2-hydroxymethyl-3-[N-(4-methyl-1,1-dioxotetrahydrothiopyran-4-yl)-carbamoyl]pyrazolo[1,5-a]pyrimidine] was below 0.01 µM; that for `CNC(=O)c1nn2c(-c3ccc(C(F)(F)F)cc3)c(-c3ccccc3Cl)cnc2c1C(=O)NC1(C)CCS(=O)(=O)CC1` [Example B36] was below 0.01 µM.
Consider `CC1(NC(=O)c2c(S(N)(=O)=O)nn3c(-c4ccc(Cl)cc4)c(-c4ccccc4Cl)cnc23)CC1` [Example B74], for which the IC50 was below 0.01 µM.
Still for that read-out and setting: the value for `CN(C)NC(=O)c1c(S(N)(=O)=O)nn2c(-c3ccc(C(F)F)cc3)c(-c3ccccc3Cl)cnc12` [Example B84] was 0.01 to 0.1 µM.

In another experiment the target is T2, Human CB2 receptor (Homo sapiens, UniProt P34972).
T2 construct: expressed in transfected cells; host or cells: CHO (hCB2/CHO), membrane fraction
T2 sequence (P34972 whole entry): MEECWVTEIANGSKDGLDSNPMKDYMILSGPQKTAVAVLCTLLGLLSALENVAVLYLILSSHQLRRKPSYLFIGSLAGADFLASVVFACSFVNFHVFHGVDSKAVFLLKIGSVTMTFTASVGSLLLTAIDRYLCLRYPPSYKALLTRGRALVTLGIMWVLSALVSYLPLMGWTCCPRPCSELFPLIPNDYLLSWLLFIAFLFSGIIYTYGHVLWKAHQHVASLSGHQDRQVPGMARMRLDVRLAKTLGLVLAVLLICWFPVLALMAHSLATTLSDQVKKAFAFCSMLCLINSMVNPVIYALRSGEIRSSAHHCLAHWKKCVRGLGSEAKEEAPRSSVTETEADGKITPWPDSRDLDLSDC
Put plainly: Human CB2 receptor-binding assay (hCB2/CHO) for selectivity to CB1 receptors. The note with it: ratio of IC50 value for CB2/IC50 value for CB1. The procedure: (1) Materials and Methods
as §1
b) Human CB2 receptor-binding assay: The binding assay was conducted in the same manner as described in Experiment 1, except that human CB2-expressing CHO cell line (hCB2/CHO) was used instead of hCB1 cell line. IC50 value of each test compound against the radioligand-binding to CB2 receptors was calculated in the manner as described in Experiment 1. Besides, selectivity to CB1 receptors was evaluated in terms of the ratio of IC50 value for CB2/IC50 value for CB1.
Consider `NC(=O)C1(NC(=O)c2cnn3c(-c4ccc(Cl)cc4)c(-c4ccccc4Cl)cnc23)CCS(=O)(=O)CC1` [Example A3, 3-[N-(4-carbamoyl-1,1-dioxo-tetrahydrothiopyran-4-yl)carbamoyl]-6-(2-chlorophenyl)-7-(4-chlorophenyl)pyrazolo[1,5-a]pyrimidine], for which the Selectivity is given as above 500.
